Reference: publication PMC7821958, “Synthesis, in vitro enzyme activity and molecular docking studies of new benzylamine-sulfonamide derivatives as selective MAO-B inhibitors” (Journal of Enzyme Inhibition and Medicinal Chemistry, 2020)
Entries after “also recorded” stand apart in the source; their conditions may differ.

How the values were obtained:
hMAO-A = target: T1, hMAO-A (Homo sapiens, UniProt P21397); test: MAO-A inhibition assay, fluorometric (Amplex Red / horseradish peroxidase-coupled); type: biochemical; settings: read-out: MAO-A % Inhibition; for inhibition at 1000 µM: 10^−3 M; for inhibition at 100 µM: 10^−4 M
T1 construct: purchased Sigma-Aldrich (Steinheim, Germany)
T1 sequence (P21397 1-527): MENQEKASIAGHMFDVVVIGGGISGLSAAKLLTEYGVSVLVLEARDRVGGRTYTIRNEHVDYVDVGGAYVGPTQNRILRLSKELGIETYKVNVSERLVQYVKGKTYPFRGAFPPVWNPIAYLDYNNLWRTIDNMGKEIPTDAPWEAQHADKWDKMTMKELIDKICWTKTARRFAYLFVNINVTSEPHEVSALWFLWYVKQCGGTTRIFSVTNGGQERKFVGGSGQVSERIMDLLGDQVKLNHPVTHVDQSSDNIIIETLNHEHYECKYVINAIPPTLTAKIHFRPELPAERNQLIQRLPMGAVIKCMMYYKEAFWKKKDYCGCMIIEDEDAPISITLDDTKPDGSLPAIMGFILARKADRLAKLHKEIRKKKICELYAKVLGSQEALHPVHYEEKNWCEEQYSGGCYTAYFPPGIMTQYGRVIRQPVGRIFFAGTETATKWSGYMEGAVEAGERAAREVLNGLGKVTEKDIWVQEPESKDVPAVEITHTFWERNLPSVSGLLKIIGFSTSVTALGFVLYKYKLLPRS
Experimental: A Biotek Precision XS robotic system (USA) was used for all pipetting operations. Measurements were performed with the use of BioTek-Synergy H1 microplate reader (USA) based upon the fluorescence generated (excitation, 535 nm, emission, 587 nm) over a 30 min period, in which the fluorescence increased linearly.
Enzymatic assay was performed according to recent method pronounced by our research group[17]^,[20–22]. Control, blank and all concentrations of obtained compounds were tested in quadruplicate and inhibition percent was calculated with following equation: % Inhibition=(FCt2 − FCt1) − (FIt2 − FIt1)/FCt2 − FCt1 × 100
FCt2: Fluorescence of a control well measured at t2 time, FCt1: Fluorescence of a control well measured at […]: Fluorescence of an inhibitor well measured at t2 time, FIt1: Fluorescence of an inhibitor well measured at t1 time,
The IC50 values were calculated using a dose-response curve achieved by plotting the percentage inhibition versus the log concentration using GraphPad ‘PRISM’ software (version 5.0).
All the obtained benzylamine-sulphonamide derivatives 4a–4u were investigated for their inhibitory activity against MAO isoforms using a previously described in vitro fluorometric method, which is based on the detection of H2O2 in a horseradish peroxidase-coupled reaction using 10-acetyl-3,7-dihydroxyphenoxazine (Amplex Red reagent)[17]^,[20–22].
The assay was carried out in two steps. […].

Cytotoxicity MTT assay = type: cell-based, mouse; settings: mouse, NIH/3T3 mouse embryonic fibroblast cells, read-out: IC50 NIH/3T3 cell line
Experimental: (§1) The NIH/3T3 mouse embryonic fibroblast cell line (ATCC®CRL-1658 ™, London, UK) was used for cytotoxicity assays. The incubation period of NIH/3T3 cells was based on the supplier's recommendation. NIH/3T3 cells were seeded at 1 × 10^4 cells into each well of 96-well plates. MTT assay was carried out in accordance with the standards previously described manner[23]^,[24]. The compounds were tested between 1 and 0.000316 mM concentrations.

[1] = system: NIH/3T3 mouse embryonic fibroblast cell line; test: Cytotoxicity MTT assay; type: cell-based; settings: NIH3T3 cells
Experimental: as §1

hMAO-B [2] = target: T2, hMAO-B (Homo sapiens, UniProt P27338); test: MAO-B inhibition assay, fluorometric (Amplex Red / horseradish peroxidase-coupled); type: biochemical; settings: for inhibition at 1000 µM: 10^−3 M; for inhibition at 100 µM: 10^−4 M; for inhibition at 10 µM: 10^−5 M; for inhibition at 1 µM: 10^−6 M; for inhibition at 0.1 µM: 10^−7 M; for inhibition at 0.01 µM: 10^−8 M; for inhibition at 0.001 µM: 10^−9 M; for IC50: Table 2, mean ± SD, read-out: IC50 against MAO-B;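 on all read-outs here: fluorescence read at Ex 535 nm and Em 587 nm over 30 min, linear phase, inhibition relative to uninhibited control wells, IC50 from log concentration–response curves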
T2 construct: purchased Sigma-Aldrich (Steinheim, Germany)
T2 sequence (P27338 1-520): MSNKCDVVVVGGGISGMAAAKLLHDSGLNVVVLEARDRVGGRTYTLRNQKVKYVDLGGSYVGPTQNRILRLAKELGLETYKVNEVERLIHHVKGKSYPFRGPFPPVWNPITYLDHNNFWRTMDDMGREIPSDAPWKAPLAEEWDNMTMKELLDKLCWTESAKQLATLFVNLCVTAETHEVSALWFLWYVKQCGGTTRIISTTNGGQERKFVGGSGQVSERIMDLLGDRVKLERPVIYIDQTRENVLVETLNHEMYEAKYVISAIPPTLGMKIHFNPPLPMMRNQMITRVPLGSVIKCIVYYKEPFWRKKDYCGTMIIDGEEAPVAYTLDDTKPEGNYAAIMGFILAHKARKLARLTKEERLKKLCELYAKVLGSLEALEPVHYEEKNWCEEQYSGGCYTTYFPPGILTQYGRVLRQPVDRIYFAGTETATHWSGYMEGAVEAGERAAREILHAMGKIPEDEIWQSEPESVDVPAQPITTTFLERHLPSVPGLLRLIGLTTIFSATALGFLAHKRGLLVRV
From the text: FCt2: Fluorescence of a control well measured at t2 time, FCt1: Fluorescence of a control well measured at t2 time, FIt2: Fluorescence of an inhibitor well measured at t2 time, FIt1: Fluorescence of an inhibitor well measured at t1 time,

hMAO-B [3] = target: T2, hMAO-B; test: Enzyme kinetic studies (Lineweaver-Burk plots, secondary plot); type: biochemical; settings: for type of inhibition: Lineweaver-Burk plot; for Ki: substrate tyramine, secondary plot, read-out: Ki, steady-state inhibition constant
Experimental: The same materials were used in the MAO inhibition assay. […] All processes were evaluated in quadruplicate. The results were analysed as Lineweaver–Burk plots by means of Microsoft Office Excel 2013. The […] of the Lineweaver–Burk plots were replotted versus the inhibitor concentration, and the Ki values were determined from the x-axis intercept as −Ki.
Enzyme kinetics studies were performed to determine the mechanism of hMAO-B inhibition by using a procedure similar to that of the MAO inhibition assay. […] In order to estimate the type of inhibition of these compounds, linear Lineweaver-Burk graphs were used. Substrate velocity curves in the absence and presence of compounds 4i and 4t were recorded. […] In each case, the initial velocity measurements were obtained at different substrate (tyramine) concentrations ranging from 20 μM to 0.625 μM.
The type of inhibition can be determined as either reversible or irreversible by using the Lineweaver-Burk plots. The reversible inhibition type can be classified as mixed-type, uncompetitive, competitive, or non-competitive[17]^,[20–22]. […] Competitive inhibition is seen if the lines intersect on the y-axis, and the slopes and x-intercepts are different. On the contrary, non-competitive inhibition has the opposite result: the plotted lines have the same x-intercept but there are diverse slopes and y-intercepts.

MAO-B = system: MAO-B; design: method as in PMID 27028260; settings: read-out: IC50 against MAO-B; cited from earlier work

inhibition at 1000 µM (hMAO-A) | inhibition at 100 µM (hMAO-A) | melting point | inhibition at 1000 µM (hMAO-B [2]) | inhibition at 100 µM (hMAO-B [2]) | inhibition at 10 µM (hMAO-B [2]) | inhibition at 1 µM (hMAO-B [2]) | inhibition at 0.1 µM (hMAO-B [2]) | inhibition at 0.01 µM (hMAO-B [2]) | inhibition at 0.001 µM (hMAO-B [2]) | IC50 (hMAO-B [2]) | type of inhibition (hMAO-B [3]) | Ki (hMAO-B [3]) | SMILES | IC50 (Cytotoxicity MTT assay) | cytotoxicity (in words) [1] | IC50 (MAO-B)
56.3 ± 0.996% | 40.5 ± 0.782% | 114 to 116 °C | 94.9 ± 1.41% | 91.8 ± 1.26% | 78.6 ± 1.11% | 72.5 ± 1.11% | 65.2 ± 0.985% | 46.5 ± 0.892% | 24.5 ± 0.627% | 0.041 ± 0.001 µM | reversible and non-competitive | 0.036 µM | NS(=O)(=O)c1ccc(N(Cc2ccccc2)C(=O)CSc2nc3cc(Cl)ccc3s2)cc1 [Compound 4i, N-Benzyl-2-((5-chlorobenzothiazol-2-yl)thio)-N-(4-sulfamoylphenyl)acetamide] | > 1000 µM | non-toxic; also recorded: non-cytotoxic at their effective concentrations | 
52.6 ± 0.987% | 38.3 ± 0.503% | 109 to 111 °C | 92.6 ± 1.13% | 88.6 ± 1.2% | 80.5 ± 1.16% | 74.7 ± 1.01% | 60.8 ± 1.16% | 36.1 ± 0.862% | 21 ± 0.594% | 0.065 ± 0.002 µM | reversible and non-competitive | 0.055 µM | Cc1ccc(CN(C(=O)CSc2nc3cc(Cl)ccc3s2)c2ccc(S(N)(=O)=O)cc2)cc1 [Compound 4t, 2-((5-Chlorobenzothiazol-2-yl)thio)-N-(4-methylbenzyl)-N-(4-sulfamoylphenyl)acetamide] | > 1000 µM | non-toxic; also recorded: non-cytotoxic at their effective concentrations | 
 |  |  |  |  |  |  |  |  |  |  |  |  | O=C(CSc1nc2cc(Cl)ccc2s1)N(Cc1cccc([N+](=O)[O-])c1)c1ccc(F)cc1 [BB-4h, 2-((5-chlorobenzothiazol-2-yl)thio)-N-(4-fluorophenyl)-N-(3-nitrobenzyl)acetamide] |  |  | 2.95 ± 0.09 µM
